The values below come from paper PMC11920646 (Frontiers in Pharmacology, 2025).

For assay [1], the system named is IFN-γ release in human whole blood. On the set-up: method as in Hu et al., 2011. The note with it: at concentrations each of 100–1000 nM ref Hu et al., 2011; cited from earlier work.
The test system of assay [2] is IL-1β–induced IL-6 release in A549 cells. The assay is described as follows: Inhibition of IL-1β–induced IL-6 release in A549 cells. It is filed as cell-based, human. On the procedure:
Cells from the human lung epithelial cell line A549 (CCL-185, ATCC) were seeded in 96-well plates at a density of […] in F12K Nutrient Mix (Gibco™, ThermoFisher Scientific, Waltham, MA, United States) with 10% fetal calf serum (FCS), and cultured for 24 h in standard conditions. […] After 30 min’ incubation, human IL-1β (1 ng/mL final concentration) was added at 50 µL/well, followed by a 20 h-incubation in standard conditions. Human IL-6 was measured in the collected supernatant using the human AlphaLISA® immunoassay kit (PerkinElmer; Supplementary Material).
Per the human AlphaLISA® (PerkinElmer) immunoassay kit instructions, the immuno-assay buffer was diluted 1:10 in water and the human IL-6 analyte standard was diluted in FCS-free F12K nutrient mix (30,000–10 pg/mL). Each standard dilution or sample (5 μL each) was added to the wells of a 96-well polystyrene compound plate, to which 20 µL of the test mix 1 (containing anti-IL-6 acceptor beads and biotinylated anti-IL-6 antibody diluted 1:200 in immuno-assay-buffer) was added to each well and incubated for 1 h at room temperature. Afterwards, donor beads were diluted 1:62.5 in immuno-assay-buffer and 25 µL were transferred to each well. After a 30-min incubation at room temperature, the plates were read using an EnVision Multilabel Reader® (PerkinElmer) equipped with the ALPHA option.

Another assay addresses T1, human MR (Homo sapiens, UniProt P08235).
T1 construct: host or cells: insect Sf9 cells
T1 sequence (P08235 1-984): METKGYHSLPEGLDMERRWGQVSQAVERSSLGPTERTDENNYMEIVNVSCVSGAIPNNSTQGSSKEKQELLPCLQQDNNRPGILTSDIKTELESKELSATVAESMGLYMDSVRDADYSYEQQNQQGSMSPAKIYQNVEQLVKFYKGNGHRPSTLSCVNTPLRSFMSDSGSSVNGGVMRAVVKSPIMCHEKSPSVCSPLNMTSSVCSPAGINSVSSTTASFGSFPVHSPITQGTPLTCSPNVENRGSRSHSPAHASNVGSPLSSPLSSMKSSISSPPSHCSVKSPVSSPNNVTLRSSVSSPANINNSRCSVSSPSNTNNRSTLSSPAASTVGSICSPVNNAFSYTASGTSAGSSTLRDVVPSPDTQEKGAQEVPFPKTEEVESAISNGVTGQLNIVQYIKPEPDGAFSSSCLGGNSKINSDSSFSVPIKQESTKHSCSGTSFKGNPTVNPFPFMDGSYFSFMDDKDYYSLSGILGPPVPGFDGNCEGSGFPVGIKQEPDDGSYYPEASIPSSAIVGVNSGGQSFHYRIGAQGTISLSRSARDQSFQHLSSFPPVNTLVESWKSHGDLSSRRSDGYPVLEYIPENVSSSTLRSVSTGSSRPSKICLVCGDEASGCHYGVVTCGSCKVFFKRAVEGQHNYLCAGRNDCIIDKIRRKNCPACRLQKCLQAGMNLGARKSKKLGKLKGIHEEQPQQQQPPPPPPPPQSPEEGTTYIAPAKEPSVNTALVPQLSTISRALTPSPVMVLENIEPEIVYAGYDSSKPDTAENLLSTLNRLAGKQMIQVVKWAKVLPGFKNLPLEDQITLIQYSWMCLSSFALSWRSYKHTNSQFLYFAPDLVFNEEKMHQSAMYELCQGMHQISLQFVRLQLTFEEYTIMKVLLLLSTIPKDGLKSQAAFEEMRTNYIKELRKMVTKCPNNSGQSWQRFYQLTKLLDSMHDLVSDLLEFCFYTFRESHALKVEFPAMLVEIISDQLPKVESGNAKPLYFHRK
The assay is described as follows: Human MR radioligand binding (3H-aldosterone, recombinant MR from Sf9 cells). The note with it: 3H-aldosterone 0.4 nM, 20 h, 4°C. On the procedure: Scintillation counting of bound radioligand was conducted after 6 and 20 h of incubation (at 4°C), respectively. […] Scintillation counting of bound radioligand was conducted after 20 h of incubation at 4°C.
The same statistical methods were used for the MR binding assays, but using MathIQ™ software (ID Business Solutions Ltd., Woking, United Kingdom).
Percent inhibition of control specific binding was calculated as follows: […]
The half-maximal inhibitory concentration (IC50; i.e., the concentration causing a half-maximal inhibition of control specific binding) and Hill coefficients (nH) were determined by non-linear regression analysis of the competition curves generated with mean replicate values using the following Hill equation curve fitting: Y=D+ A-D1+ C/C50nH , where Y = specific binding, A = left asymptote of the curve, D = right asymptote of the curve, C = compound concentration, C50 = IC50, and nH = slope factor.
The inhibition constants (Ki) were calculated using the Cheng Prusoff equation:
where L = concentration of radioligand employed in the assay, and KD = affinity of the radioligand for the receptor (a Scatchard plot was used to determine the KD) (Cheng and Prusoff, 1973).

As usually defined, the IC50 is the concentration that inhibits the measured activity by half. As usually defined, the Ki is a dissociation constant, usually derived from enzyme kinetics or from competition with a known ligand. For the compound `C[C@]12C=CC(=O)C=C1CC[C@@H]1[C@@H]2[C@@H](O)C[C@@]2(C)[C@H]1CC[C@]2(O)C(=O)CO` [Prednisolone], the “inhibition of IFN-γ release in human whole blood” value in assay [1] is reported as 85–100%. Further, the “Inhibition of IL-1β–induced IL-6 release” value in assay [2] (100% = 1 μM dexamethasone) was determined as 101 ± 2.7%. Further, the IC50 in assay [2] (Homo sapiens, IL-1β 1 ng/mL, 20 h) is 0.86 ± 0.13 nM; at human MR (read-out: Mineralocorticoid receptor IC50) it was 0.78 nM. Also, on human MR (read-out: Mineralocorticoid receptor Ki), the Ki amounted to 0.26 nM.
